The results in this text go back to US7884109B2, “Purine and imidazopyridine derivatives for immunosuppression” (Wyeth LLC, priority 2005, dated 2011).

The target of one experiment is T1, Human Jak3 (Homo sapiens, UniProt P52333).
T1 construct: A fragment encoding the catalytic domain of Jak3 (508aa to 1124aa) was ligated with GST at 5′ end; made in house; host or cells: Sf9 insect cells (baculovirus, pFastBac 1)
T1 sequence (P52333 508-1124): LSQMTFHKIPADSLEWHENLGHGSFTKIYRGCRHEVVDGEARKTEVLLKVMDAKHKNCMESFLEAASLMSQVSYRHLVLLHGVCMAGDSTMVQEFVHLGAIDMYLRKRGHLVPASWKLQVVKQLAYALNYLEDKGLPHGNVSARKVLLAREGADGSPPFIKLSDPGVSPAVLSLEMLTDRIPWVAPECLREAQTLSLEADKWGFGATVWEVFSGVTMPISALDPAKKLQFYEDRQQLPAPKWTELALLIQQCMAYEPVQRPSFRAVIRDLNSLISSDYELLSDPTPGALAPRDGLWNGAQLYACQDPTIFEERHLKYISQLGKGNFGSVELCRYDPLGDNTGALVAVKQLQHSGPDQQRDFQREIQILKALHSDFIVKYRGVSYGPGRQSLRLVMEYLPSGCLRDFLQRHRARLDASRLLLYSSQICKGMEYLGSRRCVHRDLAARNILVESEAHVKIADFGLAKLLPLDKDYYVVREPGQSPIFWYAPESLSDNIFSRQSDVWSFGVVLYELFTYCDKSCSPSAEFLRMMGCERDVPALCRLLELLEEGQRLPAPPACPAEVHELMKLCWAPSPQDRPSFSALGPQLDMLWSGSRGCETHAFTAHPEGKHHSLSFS
In words: Jak3 Kinase Assay (HTRF, GST-Jak3 catalytic domain). In kind it is biochemical. The settings on record: for IC50: (R) and (S) enantiomer pair. Here is the method:
Human Jak3 cDNA was amplified by PCR. A fragment encoding the catalytic domain of Jak3 (508aa to 1124aa) was ligated with GST at 5′ end. This fused GST-Jak3 DNA fragment was cloned into the EcoRI site of the donor plasmid pFastBac 1 (Life Technologies #10359-016). The transformation, transposition, and transfection of insect cells (Sf9) were performed according to the manufacture's instructions. The cell lysate containing recombinant GST-Jak3 was used in the kinase assay. Anti-GST antibody (10 μg/ml, Sigma #G1417) was coated onto a 384-well plate at 4° C. overnight. Cell lysate containing GST-Jak3 (1:100 dilution) was added to the anti-GST coated plates, and GST-Jak3 was captured by immobilized anti-GST antibody. Testing compounds and substrate mix (50 mM HEPES, pH 7, 0.5 mM Na3VO4, 25 mM MgCl2, 1 mM DTT, 0.005% BSA, 1 μM ATP, and 4.5 μg/ml biotinyl poly-Glu,Ala,Tyr) were added to the plate to initiate the reaction. After a 60-min incubation, the reaction was stopped by 4 mM EDTA, and phosphorylation of biotinyl poly-Glu,Ala,Tyr was detected using 17 μg/ml Cy5-streptavidin (Amersham, #PA92005) and 2.7 μg/ml Europium-conjugated anti-phosphotyrosine antibody (PerkinElmer #AD0069) using homogeneous time-resolved fluorescence (HTRF) technology.
(In TR-FRET formats the signal depends on donor and acceptor labels being close together.)

In experiment [1] the test system is IL-2-induced IFN-γ production. In words: IL-2-Induced IFN-γ Production in the Mouse. Type of experiment: in vivo. The settings on record: po, 1 h, 30 mg/kg by gavage one hour before IL-2, serum IFN-γ, female BALB/c mice, read-out: inhibition of IL-2-induced IFN-gamma production. Here is the method: Administration of IL-2 leads to an increase in serum IFN-γ in the mouse due to NK secretion of the cytokine (Thornton S, Kuhn K A, Finkelman F D and Hirsch R. NK cells secrete high levels of IFN-γ in response to in vivo administration of IL-2. Eur J Immunol 2001 31:3355-3360). The experiment was carried out essentially according to the protocol in Thornton et al. and the test compounds were administered in order to determine the level of inhibition attained. In summary, female BALB/c mice were fasted for 12-18 hours before a study but had free access to water at all times. Test compounds were administered by gavage one hour before intraperitoneal injection of IL-2 and capture antibody. At termination of the studies, the mice were sacrificed by carbon dioxide inhalation, terminal blood samples were collected by cardiac puncture and serum was generated. Serum was stored frozen until it was assayed for IFN-γ, as described by the kit manufacturer (BD Pharmingen™, San Diego, Calif.).

Molecules are shown by their SMILES.

Usually IC50 stands for the concentration at which inhibition is half-maximal. Low values mean greater potency, high ones weaker potency. In the case of `O=c1[nH]c2cnc(-n3cnc4ccccc43)nc2n1[C@@H]1CCOc2c(F)cc(F)cc21`, the IC50 against Human Jak3 is below 1 µM. Also, the “Jak3 potency relative to the other enantiomer” value on Human Jak3 ((R) versus (S) enantiomer) is given as “more potent than its corresponding (S) enantiomer”.
On Human Jak3, `O=c1[nH]c2cnc(-n3cnc4ccccc43)nc2n1[C@H]1CCOc2c(F)cc(F)cc21` yielded an IC50 below 1 µM.
As a reminder, the inhibition is the change of the read-out against control, counted positive when it falls. On to `C[C@@H]1CCN(C(=O)CC#N)C[C@@H]1N(C)c1ncnc2[nH]ccc12` [CP690550, reference compound], for which the inhibition at 30 mg/kg in experiment [1] is 96%.
As for `O=c1[nH]c2cnc(-n3cnc4ccccc43)nc2n1[C@@H]1CCOc2c(F)cccc21` [Example 114], the inhibition at 30 mg/kg in experiment [1] is above 40%.
As for `C[C@H](c1cccnc1)n1c(=O)[nH]c2cnc(-n3cnc4ccccc43)nc21` [Example 120], the inhibition at 30 mg/kg in experiment [1] was above 40%.
Regarding `O=C1CCC(n2c(=O)[nH]c3cnc(-n4cnc5ccccc54)nc32)c2ccccc21` (stereo not shown) [Example 135], the inhibition at 30 mg/kg in experiment [1] was above 40%.
Regarding `O=c1[nH]c2cnc(-n3cnc4ccc(F)cc43)nc2n1C1CCOc2c(F)cccc21` (stereo not shown) [Example 142], the inhibition at 30 mg/kg in experiment [1] was above 40%.
Still for that read-out and setting: to `O=c1[nH]c2cnc(-n3cnc4ccccc43)nc2n1C1CCOc2c(F)cc(F)cc21` (stereo not shown) [Example 151] belongs above 40%; to `O=c1[nH]c2cnc(-n3cnc4ccccc43)nc2n1C1CCOc2c(F)ccc(F)c21` (stereo not shown) [Example 162], above 40%.
